Tests used:
[1] = tested on: Cells carrying a COL4A2 missense mutation; assay: BIP and ATF6 expression and protein in cells carrying a COL4A2 missense mutation; assay type: cell-based; settings: 50 μM CBZ, data not shown
Experimental: Cells carrying a COL4A2 missense mutation (which causes haemorrhagic stroke) are treated with 50 μM CBZ. After treatment expression of BIP and ATF 6 are determined by qPCR and mRNA analysis and levels of BIP and ATF6 protein are determined by SDS-PAGE and western blot analysis as previously described herein.

[2] = tested on: MCDS mice (homozygous N617K collagen X mutation); assay: Tibial growth plate histology, immunohistochemistry, in situ hybridisation and TRAP staining in MCDS mice; assay type: in vivo, mouse
Experimental: FIG. 2 illustrates the effect of carbamazepine on the growth plate pathology associated with MCDS. 3 week old MCDS mice were treated with CBZ for a period of one week. Untreated MCDS mice and mice wild-type for collagen X (WT) were used as controls. (a) H+E staining of the tibial growth plate at 4 weeks of age. (b) Immunohistochemistry for Grp78 and (c) Immunohistochemistry for collagen X. Yellow bars show the hypertrophic zone. Scale bars equal to 100 μM in all cases. (d) is a table showing growth plate zone measurements at 4 weeks of age. Mean±SEM. Number of animals shown in brackets. Significance between mutant untreated mice and treated mice shown by the asterisk. (e) Western blots of rib growth plate cartilage at 4 weeks of age for Grp78, ATF4, p62/SQSTM1 and LC3-II alongside the associated coomassie blue stain used as a loading control. Quantification of these blots against the coomassie protein level is shown in supplementary S4. (f) X-ray images of the pelvis at 6 weeks of age. The angle between the lines was measured in a minimum of 5 animals and a graph showing the mean±SEM is shown in (g). Graphs showing the percentage increase in growth of the (h) tibia and (i) femur from 3 weeks of age.
FIG. 3 illustrates the effect of carbamazepine on chondrocyte differentiation MCDS mice were treated with CBZ for 1 week. In situ hybridisation for a) collagen X mRNA levels b) Collagen II mRNA levels c) Osteopontin mRNA levels d) MMP13 mRNA levels. e) TRAP staining for osteoclast number, osteoclasts shown by the white asterisks. (f) Quantification of the number of osteoclasts per mm of vascular invasion front. Mean±SEM. (g) H+E image showing the terminal hypertrophic chondrocytes at the vascular invasion front. g) The height of the most terminal hypertrophic chondrocytes (within the red bracket) was measured, and mean±SEM is shown in (h). Hypertrophic zone marked by the yellow bar. Vascular invasion front shown by the orange line. Scale bar equal to 100 μM in all cases. Mean±SEM (*P<0.05 **P<0.005 ***P<0.0005).
The generation and genotyping of the Col10a1 p.N617K mouse line has been described previously (Rajpar et al 2009). Mice homozygous for the MCDS-causing N617K collagen X mutation were x-rayed at 3 weeks of age and treated with carbamazepine (250 mg/kg/day) for up to 21 days via a subcutaneous implantation of a slow-release pellet (Innovative research of America USA C-113) whilst the mouse was under anaesthetic. The incision was sutured closed, glued using Vetbond tissue adhesive (Santa-Cruz sc-361931) and the mice given an appropriate dose of buprenorphine painkiller depending on their body weight. Male mice were X-rayed once per week in order monitor bone growth; female mice were sacrificed after 1 week of treatment either by cervical dislocation or by carbon dioxide overdose under the provisions of the Animals (Scientific Procedures) Act 1986 and tissues collected for histological analysis. All procedures were carried out according to Home Office regulations.
Hind limbs were dissected and fixed overnight in ice-cold 4% paraformaldehyde (w/v) in 1×DEPC-PBS or 95% ethanol/5% acetic acid (v/v), and decalcified in 0.8 M ethyl-diamine tetracetic acid (EDTA) pH 7.4 for a period of one week. The samples were embedded in paraffin wax and sectioned sagittally using a cool-cut HM 355 S microtime (MicRom) generating 5 μm thick sections. Sections were collected on positively charged superfrost slides (VWR) and dried overnight prior to histological staining, immunohistochemistry or in situ hybridisation.
H+E staining was performed as described previously ^10 and images taken using a Carl Zeiss Axiovision microscope fitted with an Axiocam colour CCD camera and associated Axiovision software.
Growth plate zone widths were measured on images of known magnification as described previously (Rajpar et al 2009). […]

NC(=O)N1c2ccccc2C=Cc2ccccc21 [CBZ, Carbamazepine]
ATF6 expression ([1]; qPCR): decreased level | BIP expression ([1]; qPCR): decreased level | ATF6 protein level ([1]; western blot): decreased level | BIP protein level ([1]; western blot): decreased level | size of the hypertrophic zone ([2]; 250 mg/kg body weight/day, 1 week, vs untreated MCDS controls): significant reduction | BiP protein in growth plate sections (immunostaining) ([2]; 1 week): reduced | expression pattern of collagen X, collagen II, OPN and MMP13 (in situ hybridisation) ([2]; CBZ for 1 week): altered the expression pattern of each of these markers towards that seen in the WT mouse | hypertrophy, based on the height of the terminal hypertrophic chondrocytes ([2]; CBZ for 1 week): enhanced | osteoclast recruitment to the vascular invasion front (TRAP staining) ([2]; CBZ for 1 week): partially restored | level of extracellular collagen X (immunohistochemistry) ([2]; tibial growth plate, 1 week): no overt increase | level of intracellular collagen X (immunohistochemistry) ([2]; tibial growth plate, 1 week): reduced

Source: US20190076440A1, “TREATMENT OF TISSUE DISORDERS” (priority 2016, published 2019)
